In the supplement of paper PMC9663587:

Legend:
SUM52PE = assay: GRmax, 72 h; higher = less effect;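 also: breast cell lines in 384-well plates, nine doses across a 10^4 range, Dye Drop imaging of viable cells vs DMSO and time-zero plates, GR 0 means no net growth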
CAMA1 = assay: GRmax, 72 h; higher = less effect;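 also: breast cell lines in 384-well plates, nine doses across a 10^4 range, Dye Drop imaging of viable cells vs DMSO and time-zero plates, GR 0 means no net growth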
CAL120 = assay: GRmax, 72 h; higher = less effect;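 also: breast cell lines in 384-well plates, nine doses across a 10^4 range, Dye Drop imaging of viable cells vs DMSO and time-zero plates, GR 0 means no net growth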
T47D = assay: GRmax, 72 h; higher = less effect;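 also: breast cell lines in 384-well plates, nine doses across a 10^4 range, Dye Drop imaging of viable cells vs DMSO and time-zero plates, GR 0 means no net growth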
HCC1937 = assay: area over the GR curve, 72 h; higher = more effect;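 also: Dye Drop or Deep Dye Drop imaging of viable cells in 384-well plates (Hoechst nuclei, LIVE/DEAD dye), nine half-log doses, GR normalized to DMSO controls and time-zero plates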
MDAMB453 = assay: area over the GR curve, 72 h; higher = more effect;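 also: Dye Drop or Deep Dye Drop imaging of viable cells in 384-well plates (Hoechst nuclei, LIVE/DEAD dye), nine half-log doses, GR normalized to DMSO controls and time-zero plates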
MDAMB231 = assay: area over the GR curve, 72 h; higher = more effect;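 also: Dye Drop or Deep Dye Drop imaging of viable cells in 384-well plates (Hoechst nuclei, LIVE/DEAD dye), nine half-log doses, GR normalized to DMSO controls and time-zero plates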
MDAMB361 = assay: area over the GR curve, 72 h; higher = more effect;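 also: Dye Drop or Deep Dye Drop imaging of viable cells in 384-well plates (Hoechst nuclei, LIVE/DEAD dye), nine half-log doses, GR normalized to DMSO controls and time-zero plates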
CAL851 = assay: area over the GR curve, 72 h; higher = more effect
HCC1419 = assay: area over the GR curve, 72 h; higher = more effect
EFM19 = assay: area over the GR curve, 72 h; higher = more effect

| Compound | GRmax, 72 h (SUM52PE) | GRmax, 72 h (CAMA1) | GRmax, 72 h (CAL120) | GRmax, 72 h (T47D) | area over the GR curve (HCC1937) | area over the GR curve (MDAMB453) | area over the GR curve (MDAMB231) | area over the GR curve (MDAMB361) | area over the GR curve (CAL851) | area over the GR curve (HCC1419) | area over the GR curve (EFM19) | GRmax, 72 h (CAMA1; main component drawn) | GRmax, 72 h (CAL120; main component drawn) | GRmax, 72 h (T47D; main component drawn) | area over the GR curve (HCC1937; main component drawn) | area over the GR curve (MDAMB453; main component drawn) | area over the GR curve (MDAMB231; main component drawn) | area over the GR curve (MDAMB361; main component drawn) | area over the GR curve (CAL851; main component drawn) | area over the GR curve (HCC1419; main component drawn) |
| --- | --- | --- | --- | --- | --- | --- | --- | --- | --- | --- | --- | --- | --- | --- | --- | --- | --- | --- | --- | --- |
| CS(=O)(=O)N1CCN(Cc2cc3nc(-c4cccc5[nH]ncc45)nc(N4CCOCC4)c3s2)CC1 [Pictilisib/GDC0941] (max 10 µM) | -0.205 GR | -0.237 GR | 0.194 GR | -0.147 GR | 0.211 GR | 0.391 GR | 0.206 GR | 0.716 GR | 0.36 GR | 0.512 GR | 0.439 GR |  |  |  |  |  |  |  |  |  |
| O=C1NC(=O)[C@@H](c2cn3c4c(cccc24)CCC3)[C@@H]1c1c[nH]c2ccccc12 [Tivantinib/ARQ197] (max 10 µM) | -0.354 GR | -0.566 GR | -0.256 GR | -0.154 GR | 0.29 GR | 0.404 GR | 0.323 GR | 0.514 GR | 0.518 GR | 0.238 GR | 0.361 GR |  |  |  |  |  |  |  |  |  |
| Cc1c(N)nc([C@H](CC(N)=O)NC[C@H](N)C(N)=O)nc1C(=O)N[C@H](C(=O)N[C@H](C)[C@@H](O)[C@H](C)C(=O)N[C@H](C(=O)NCCc1nc(-c2nc(C(=O)NCCC[S+](C)C)cs2)cs1)[C@@H](C)O)[C@@H](OC1OC(CO)C(O)C(O)C1OC1OC(CO)C(O)C(OC(N)=O)C1O)c1cnc[nH]1 (stereo partly drawn) [Bleomycin] (max 10 µM) |  |  |  |  |  |  |  |  |  |  |  | -0.0365 GR | 0.0886 GR | -0.084 GR | 0.416 GR | 0.198 GR | 0.132 GR | 0.361 GR | 0.385 GR | 0.141 GR |
| CO[C@H]1C[C@@H]2CC[C@@H](C)[C@@](O)(O2)C(=O)C(=O)N2CCCC[C@H]2C(=O)O[C@H]([C@H](C)C[C@@H]2CC[C@@H](OCCO)[C@H](OC)C2)CC(=O)[C@H](C)/C=C(\C)[C@@H](O)[C@@H](OC)C(=O)[C@H](C)C[C@H](C)/C=C/C=C/C=C/1C [Everolimus] (max 10 µM) | 0.553 GR | 0.164 GR | 0.527 GR | 0.297 GR | 0.335 GR | 0.888 GR | 0.225 GR | 0.85 GR | 0.576 GR | 0.724 GR | 0.731 GR |  |  |  |  |  |  |  |  |  |
| CN1CC[C@H](c2c(O)cc(O)c3c(=O)cc(-c4ccccc4Cl)oc23)[C@H](O)C1 [Flavopiridol] (max 1 µM) | -0.193 GR | -0.13 GR | -0.0459 GR | -0.134 GR | 0.238 GR | 0.272 GR | 0.286 GR | 0.397 GR | 0.3 GR | 0.225 GR | 0.191 GR |  |  |  |  |  |  |  |  |  |
| CNCc1ccc(-c2[nH]c3cc(F)cc4c3c2CCNC4=O)cc1 [Rucaparib] (max 10 µM) | 0.961 GR | 0.789 GR | 0.613 GR | 0.854 GR | 0.0989 GR | 0.14 GR | 0.0793 GR | 0.336 GR | 0.203 GR | 0.0527 GR | 0.0332 GR |  |  |  |  |  |  |  |  |  |
| CC[C@@H]1C(=O)N(C)c2cnc(Nc3ccc(C(=O)N[C@H]4CC[C@H](N5CCN(CC6CC6)CC5)CC4)cc3OC)nc2N1C(C)C [Volasertib/BI6727] (max 1 µM) | -0.409 GR | -0.296 GR | 0.0258 GR | -0.159 GR | 0.497 GR | 0.488 GR | 0.584 GR | 0.793 GR | 0.717 GR | 0.325 GR | 0.741 GR |  |  |  |  |  |  |  |  |  |
| CC1(N)CCN(c2cnc(-c3cccc(Cl)c3Cl)c(N)n2)CC1 [SHP099] (max 10 µM) | 0.937 GR | 0.779 GR | 0.869 GR | 0.879 GR | 0.0653 GR | 0.0286 GR | -0.0083 GR | 0.13 GR | 0.137 GR | 0.0437 GR | -0.0009 GR |  |  |  |  |  |  |  |  |  |
| CNc1nc(-c2ccc3c(N)n[nH]c3c2)cc(N2C[C@@H](C(=O)NC3CCCCC3)CC[C@H]2C)n1 (max 10 µM) | 0.386 GR | 0.716 GR | 0.786 GR | 0.164 GR | 0.146 GR | 0.266 GR | 0.149 GR | 0.636 GR | 0.201 GR | 0.245 GR | 0.293 GR |  |  |  |  |  |  |  |  |  |
| CCc1cncnc1N1CCN(Cc2nc3ccc(C(F)(F)F)cc3[nH]2)CC1 (max 10 µM) | 0.446 GR | 0.655 GR | 0.924 GR | 0.366 GR | 0.039 GR | -0.0403 GR | 0.0105 GR | 0.0684 GR | -0.0315 GR | 0.112 GR | -0.0563 GR |  |  |  |  |  |  |  |  |  |
| COc1cc2c(Oc3ccc4[nH]c(C)cc4c3F)ncnc2cc1OCCCN1CCCC1 [Cediranib/AZD2171] (max 10 µM) | 0.21 GR | -0.292 GR | -0.124 GR | -0.64 GR | 0.044 GR | 0.126 GR | 0.116 GR | 0.288 GR | 0.179 GR | 0.0482 GR | 0.0327 GR |  |  |  |  |  |  |  |  |  |
| CCc1cnn2c(NCc3ccc[n+]([O-])c3)cc(N3CCCC[C@H]3CCO)nc12 (max 1 µM) | -0.33 GR | -0.485 GR | -0.132 GR | -0.211 GR | 0.475 GR | 0.578 GR | 0.663 GR | 0.593 GR | 0.686 GR | 0.443 GR | 0.459 GR |  |  |  |  |  |  |  |  |  |
| COc1cccc(OCCCN)c1-c1cc(Nc2cnc(C#N)cn2)n[nH]1 | -0.292 GR | 0.084 GR | 0.317 GR | 0.428 GR | 0.55 GR | 0.843 GR | 1.09 GR | 0.828 GR | 0.608 GR | 0.413 GR | 0.041 GR |  |  |  |  |  |  |  |  |  |
| CC(C)n1nc(-c2ccc3oc(N)nc3c2)c2c(N)ncnc21 [INK128/MLN0128] (max 3.162 µM) | -0.161 GR | -0.0962 GR | -0.0097 GR | -0.0486 GR | 0.369 GR | 0.756 GR | 0.486 GR | 1.1 GR | 0.626 GR | 0.763 GR | 0.682 GR |  |  |  |  |  |  |  |  |  |
| N.N.[Cl][Pt][Cl] [Cisplatin] (max 10 µM) |  | -0.0042 GR | 0.188 GR | 0.102 GR | 0.327 GR | 0.0713 GR | 0.15 GR | 0.177 GR | 0.221 GR | 0.223 GR |  |  |  |  |  |  |  |  |  |  |
| Nc1cc(C(F)(F)F)c(-c2cc(N3CCOCC3)nc(N3CCOCC3)n2)cn1 [Buparlisib/NVP-BKM120] (max 10 µM) | -0.183 GR | -0.422 GR | -0.272 GR | -0.418 GR | 0.263 GR | 0.331 GR | 0.275 GR | 0.611 GR | 0.442 GR | 0.45 GR | 0.323 GR |  |  |  |  |  |  |  |  |  |
| COc1cc2nccc(Oc3ccc(NC(=O)C4(C(=O)Nc5ccc(F)cc5)CC4)cc3)c2cc1OC [Cabozantinib] (max 10 µM) | 0.0751 GR | 0.244 GR | 0.257 GR | 0.313 GR | 0.0053 GR | -0.0455 GR | 0.141 GR | 0.0628 GR | 0.123 GR | -0.0617 GR | -0.0111 GR |  |  |  |  |  |  |  |  |  |
